# Active and inactive are the calls of the source.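 How the source made its calls: active means EC50 no more than a set limit of log units above the highest dose; inactive means the rest.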
# Target: S. pyogenes SKKanGAS, kanamycin survival, BacTiterGlo, 6 h
# Experiment: SKKanGAS survival reduction under kanamycin, dose response, streptokinase promoter inhibitor project, SKKanGAS strain, luminescence, dose confirmation (AID 1902);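 further: lower survival reflects blocked streptokinase promoter driving kanamycin resistance gene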
row,Compound,EC50
1,O=C(CSc1nnc(NC(=O)c2ccccc2[N+](=O)[O-])s1)NC1CCCC1,> 15 µM (inactive)
2,Fc1ccccc1CNc1cc(Cl)cc(Cl)c1,12.5 µM
3,CCCOc1cccc(-c2cc(C(=O)N/N=C/c3ccccn3)c3ccccc3n2)c1,1.87 µM
4,Cc1cc(C)c2ccc(NN)nc2c1O,6.08 µM
5,Nc1ccc(-c2cn3cccnc3n2)cc1,> 15 µM (inactive)
6,Cc1cc(/C=C2\SC(=S)N(C)C2=O)c(C)n1-c1ccccc1O,6.72 µM
7,O=C(O)c1cnc(-c2ccccc2)nc1Sc1ccc(Cl)cc1Cl,9.74 µM
8,Cc1ccc2nc(-c3ccc(NS(=O)(=O)c4ccc(F)cc4)cc3)sc2c1,3.31 µM
9,CCOc1ccc(NC(=O)c2ccc3c(=O)n(-c4ccc(OC)cc4OC)c(=S)[nH]c3c2)cc1,7.86 µM
10,c1ccc(C(NCCNC(c2ccccc2)c2ccccc2)c2ccccc2)cc1,1.05 µM
11,Cc1cc(C)c(-c2noc(C(=O)OC(C)(C)C)c2C(=O)OC(C)(C)C)c(C)c1,3.58 µM
12,CC(C)c1ccc2[nH]c3c(c2c1)CCC/C3=N\NC(=O)c1ccncc1,2.43 µM
13,CN1CCN(c2c(F)cc3c(=O)c(C(=O)O)cn4c3c2OCN4C)CC1,3.29 µM
14,CC1CN(Cc2nc3c(c(=O)[nH]c(=O)n3C)n2CCCc2ccccc2)CC(C)O1 (stereo not given),> 15 µM (inactive)
15,CC[C@H]1OC(=O)[C@H](C)[C@@H](O[C@H]2C[C@@](C)(OC)[C@@H](O)[C@H](C)O2)[C@H](C)[C@@H](O[C@@H]2O[C@H](C)C[C@H](N(C)C)[C@H]2O)[C@](C)(OC)C[C@@H](C)C(=O)[C@H](C)[C@@H](O)[C@]1(C)O,< 0.06 µM
16,Cc1nc(=S)c2c([nH]1)-c1ccccc1CC21CCCCC1,0.945 µM
17,CSc1nc2cc(Oc3cccc(Cl)c3Cl)c(Cl)cc2[nH]1,2.93 µM
18,CC1=C(C(=O)Nc2ccc([N+](=O)[O-])cc2)C(c2cccc(C(F)(F)F)c2)NC(=S)N1c1ccccc1 (stereo not given),4.02 µM
19,Brc1ccc(-c2cn3c(n2)CCc2ccc4cccnc4c2-3)cc1,1.77 µM
20,Cc1ccccc1/C=C/C(=O)c1ccc([N+](=O)[O-])o1,4.61 µM
21,O=C(Nc1ccc(Br)c(C(F)(F)F)c1)c1ccc(C(F)(F)F)cc1,1.86 µM
22,Cc1cccc(/C=N/NC(=O)Cc2ccc(Cl)cc2)c1O,3.53 µM
23,CCOC(=O)C1=NN(C(=O)c2ccc(OC)cc2)C(O)(c2ccc(Cl)cc2)C1 (stereo not given),6 µM
24,COc1ccccc1C(=O)NNC(=S)NC(=O)c1sc2ccccc2c1Cl,< 0.06 µM
25,Cc1nnc(SCC2=C(C(=O)O)N3C(=O)C(NC(=O)Cn4nc(C)c(Cl)c4C)C3SC2)s1 (stereo not given),< 0.06 µM

row,Compound,EC50
1,CC(=O)NC(c1ccccc1)c1cc(Cl)c2cccnc2c1O (stereo not given),1.17 µM
2,CCCOc1ccc(C(=O)NC(=S)N2CCN(c3cc4c(cc3F)c(=O)c(C(=O)O)cn4CC)CC2)cc1,2.34 µM
3,CCOc1cc(N2CCOCC2)c(OCC)cc1NC(=O)C1=NN(c2cccc(C)c2)C(=O)CC1,13.1 µM
4,Cc1noc(C)c1CSCC(=O)Nc1nc2ccc(Oc3ccccc3)cc2s1,4.85 µM
5,O=C(NC(=S)N1CCN(c2ccc(Cl)cc2[N+](=O)[O-])CC1)c1cccs1,2.75 µM
6,COC(=O)C1=C(C)NC2=C(C(=O)c3ccccc32)C1c1ccc(-c2ccc(C(=O)O)cc2)o1 (stereo not given),2.76 µM
7,COC(=O)c1ccc(CSc2n[nH]c(=S)s2)o1,3.25 µM
8,Cc1nn2c(NCc3ccccn3)cc(C(C)C)nc2c1-c1ccccc1,5.94 µM
9,Fc1ccc(CO/N=C/C2=C(Cl)c3ccccc3CC2)cc1,3.96 µM
10,O=C(O)c1cccc2c(-c3ccccc3)c(-c3ccccc3)[nH]c12,8.51 µM
11,COc1ccc(C2c3ccc(O)cc3Oc3ncn4nc(-c5ccncc5)nc4c32)cc1OC (stereo not given),6.28 µM
12,Oc1nc(Nc2ccc(F)cc2)sc1/C=C1\C=Nc2ccccc21,8.88 µM
13,CCOC(=O)c1ccc(Nc2nc(C)nc3c2nnn3Cc2ccccc2)cc1,6.69 µM
14,COc1ccc(Cl)cc1NC(=O)CN1CCC(n2nnc3cc(C)ccc32)CC1,10.8 µM
15,C/C(=N/NC(=O)c1cccs1)c1c(C)[nH]n(-c2nc3ccccc3s2)c1=O,3.24 µM
16,COc1ccccc1C(=O)NNC(=O)C(=O)Nc1cccc(Cl)c1C,3.44 µM
17,Oc1c(N=NC(=S)Nc2ccccc2F)c2ccccc2n1Cc1ccc(F)cc1,0.892 µM
18,O=C(COC(=O)Cc1cn2ccsc2n1)Nc1nc2ccccc2s1,2.51 µM
19,COc1cc(/C=N/Nc2nc3ccccc3s2)cc([N+](=O)[O-])c1O,8.93 µM
20,Cc1ccc(Nc2nc3ccccc3[nH]2)nc1,1.28 µM
21,COc1ccc(NS(=O)(=O)c2cccc(NC(=O)CCC(=O)c3ccc(Cl)cc3)c2)cc1,7.85 µM
22,NCCCn1c(C(=O)c2cc(Cl)c(N)c(Cl)c2)c2ccc([N+](=O)[O-])cc2[n+]1[O-],4.25 µM
23,C/C(CC(=O)Nc1ccc(Cl)c(C(F)(F)F)c1)=N\NC(=O)c1ccccc1O,3.98 µM
24,Cc1c(C(=O)N2CCC(Cc3ccccc3)CC2)sc2ncnc(N3CCC(C)CC3)c12,6.31 µM
25,CCOc1ccc(Nc2nc(N3CCCCC3)nc(N3CCCCC3)n2)cc1,0.65 µM

row,Compound,EC50
1,Cc1n[nH]c(=O)c2c(NC(=O)CSc3nnnn3-c3ccccc3)oc(C)c12,> 15 µM (inactive)
2,CCOC(=O)c1sc(Nc2nc3ccc(OC)cc3s2)cc1C,2.95 µM
3,Cc1c(N/N=C(\C#N)C(=O)c2ccc(Cl)cc2)c(=O)n(-c2ccccc2)n1C,0.36 µM
4,O=C(c1cc(-c2ccccc2)nc2ccccc12)N1CCN(c2ccccc2O)CC1,6.96 µM
5,COc1ccccc1-n1cnc2c(c1=O)c1nc3ccccc3nc1n2-c1ccc(C)c(C)c1,9.11 µM
6,Cc1ccc(NC(=O)C(OC(=O)c2ccc(NC(N)=O)cc2)c2ccccc2)cc1Cl (stereo not given),6.52 µM
7,CCN1CCN(c2cc3c(cc2F)c(=O)c(C(=O)O)cn3C2CC2)CC1,1.29 µM
8,C/C(=N\NC(=S)NCC(C)(C)C)c1cc(F)cc(F)c1O,2.65 µM
9,Oc1c(C=Nc2cccc3cccnc23)sc2ccccc12,3.94 µM
10,O=C(/C=C/c1ccccc1)NC(=S)NNC(=O)c1ccco1,2.76 µM
11,Cc1sc2ncnc(N3CCC(C(=O)Nc4ccc(Cl)cc4Cl)CC3)c2c1C,11.2 µM
12,O=C(CSc1ccccn1)Nc1nonc1[N+](=O)[O-],7.31 µM
13,CCCCCCCCCC[N+](C)(C)CC/C=C1/c2ccccc2Sc2ccc(Cl)cc21,2.31 µM
14,NC(=S)N/N=C/c1ccc(C23CC4CC(CC(C4)C2)C3)cc1,3.91 µM
15,Oc1cccc(-c2nc3ccc4ccccc4c3c3c2CCC3)c1,8.4 µM
16,COc1ccc(CN(C)S(=O)(=O)c2ccc3c(c2)OCCO3)cc1,> 15 µM (inactive)
17,O=C(Nc1ccc(OC(F)(F)F)cc1)C1CCCN(S(=O)(=O)c2cnc[nH]2)C1 (stereo not given),> 15 µM (inactive)
18,COc1cccc(-c2cc(C(F)(F)F)nc(N3CCCCC3)n2)c1,4.86 µM
19,COc1cccc(NCc2cc(=O)oc3cc(C)c(O)cc23)c1,1.85 µM
20,CC(=O)Nc1nnc(S(=O)(=O)N2CCN(c3ccc(Cl)cc3[N+](=O)[O-])CC2)s1,> 15 µM (inactive)
21,COc1ccccc1C(=O)Nc1nnc(SCC(=O)NCC2CCCO2)s1 (stereo not given),> 15 µM (inactive)
22,COc1cccc(-c2cc(C(=O)NCC3CCCO3)c3cc(Br)cc(C)c3n2)c1 (stereo not given),> 15 µM (inactive)
23,COc1ccc(-c2csc(Nc3ccc(S(=O)(=O)Nc4cc(C)on4)cc3)n2)cc1C,6.44 µM
24,CCCCC[n+]1ccn(C2=C([O-])c3ccccc3C(=O)/C2=N\S(=O)(=O)c2ccccc2)c1,2.58 µM
25,Cc1noc(C)c1-c1nnc(-c2ccc(OC(F)(F)F)cc2)o1,> 15 µM (inactive)

# Source: PubChem BioAssay AID1902 (Broad Institute, 2009)
